The results in this text go back to US20030114460A1, “Pharmaceutical conjugates with enhanced pharmacokinetic characteristics” (priority 2001, published 2003).

Series [1] is classed as in vivo, human. As for the experimental part:
A person receives a routine eye examination. […] With their habitual spectacle correction, their best corrected visual acuities are 20/20 in both eyes. Their pupils are found to be round, equally reactive to light, and without any presence of afferent pupillary defect. […] Their intraocular pressures are measured at 32 mmHg in both eyes (with the Goldmann tonometer at 3 pm). […] A Humphrey C-20 automated threshold visual field test indicates the presence of generalized depression in both eyes. […] Their blood pressure is 125/85 and their pulse rate is 60 beats/min. Because of the enlarged cup to disc ratio, elevated intraocular pressures, and the generalized depression of the threshold visual fields, they are diagnosed with open angle glaucoma. Timolol 0.5% 1 drop two times daily in both eyes is prescribed for two weeks. The patient is to return in two weeks for a follow-up evaluation. At the follow-up evaluation, they state that they have been compliant with the prescribed therapy. Their intraocular pressure is measured at 28 mmHg at 1 pm with the Goldmann tonometer. Their blood pressure is 118/86 and their pulse rate is 65 beats/min. Bromonidine-conjugate 0.2% 1 drop two times daily in both eyes is added to the treatment regimen. After another two weeks, the patient has a follow-up evaluation, during which, the patient's intraocular pressure measures 18 mmHg in the right eye, and 17 mmHg in the left eye. Their blood pressure and pulse rate remain normal. The patient is re-evaluated every 3 months with the continuation of combination therapy.

Series [2] in a line: Apparent octanol/water partition coefficient. The note with it: memantine HCl, printed as Log 3.0. The format is physicochemical. From the text:
(§1) For example, memantine may be employed as an EEC in accordance with this invention. […] The memantine HCl apparent octanol/water partition coefficient is Log 3.0. The high apparent partition and high solubility appear contradictory. However, the charged amine of memantine HCl (pKa 10.27) results in the high solubility while the free base results in the high partitioning of memantine into octanol. As the HCl salt and free base are in equilibrium, permeation of the free base through biologic tissues results. The impact of a high solubility and a high partition coefficient of the free base are a high bioavailability.

A further series can be described thus: pKa of the charged amine. The format is physicochemical. The note with it: charged amine of memantine HCl.
Text: as §1

The nature of series [3]: Aqueous solubility of memantine HCl. The note with it: HCl salt, pH 6.5 aqueous solution. The format is physicochemical.
Text: as §1

Series [4] is described as follows: Autoradiography of the eye after topical ophthalmic instillation. The format is in vivo, albino and pigmented rabbits. As for the experimental part: General disposition of topical ophthalmic 1-amino-3,5-dimethyladamantane hydrochloride (memantine) instillation was assessed by autoradiography. Briefly, albino and pigmented rabbits were dosed via topical ophthalmic instillation with a 0.74% aqueous isotonic memantine solution, pH 7.4. After dosing autoradiographic sections of the eye were acquired at 0.25, 0.5, 1, and 2 and 24 hours post dosing. […] Further, a qualitative assessment of residence time could be made from the data.

The nature of series [5]: Ocular tissue concentrations after oral and topical dosing. In kind it is in vivo, Rabbits. The note with it: rabbit, retina, read-out: retinal memantine concentration. As to the method:
Ocular tissue concentrations were also determined after oral and topical dosing. Rabbits were dosed topically with 35 μl of a 0.1% aqueous solution of memantine twice a day for 7 days. Another subset of rabbits was dosed orally with 2 mg/kg memantine for seven days. At the end of the dosing period ocular tissue concentrations were quantified. The retinal memantine concentrations from topical and oral dosing were essentially equivalent (107 ng/ml and 108 ng/ml, respectively).

A further series deals with CMV retinitis. Put plainly: Patient case, CMV retinitis (Example 5). In kind it is in vivo, human. From the text: A person complains of gradual onset of floaters and progressive reduction of vision in both eyes, but without pain. The patient has been HIV+ for 7 years, and was recently hospitalized for Cryptococcal pneumonia. The patient is taking AZT, ddI, indinivir, and has been for the past three years, with moderate compliance. […] Granular hemorrhagic areas are noted throughout the retina, with a “brushfire” appearance. […] These findings are all evidence of CMV retinitis, secondary to AIDS. Ganciclovir-conjugate 0.5% 1 drop four times daily in both eyes is prescribed. At a two-week follow-up examination, the patient states full compliance with the treatment protocol. The patient also states an improvement in vision with a reduced number of floaters. […] The patient is advised to continue the ganciclovir-conjugate drops indefinitely.

The next series relates to fungal corneal ulcer. Put plainly: Patient case, fungal corneal ulcer (Example 3). In kind it is in vivo, human. As to conditions: next day; 5% natamycin drops each hour (day) / every two hours (night) with 5% homatropine four times each day. As for the experimental part: A […] […] […] comes to a clinic complaining of severe pain, redness, tearing, and photophobia in […] left eye. One day before, the patient was hit by a tree twig while playing football in the park. Severe conjunctival hyperemia with clear discharge is observed. […] Intraocular pressure is also elevated (20 mmHg) by Goldman tonometry. A fungal corneal ulcer is diagnosed. The patient is administered 5% natamycin drops each hour during the day and every two hours at night and 5% homatropine four times each day for […] left eye. […] The patient is experiencing blurriness in the left eye. […] The extent of Na Fl stain is also enlarged. The patient is given 0.15% amphotericin B drops and 5% ketoconazole-conjugate drops once daily in both eyes. […] 5% natamycin drops every two hours are administered around the clock, as well as 5% homatropine two times daily, and 5% ketoconazole-conjugate drops once daily.

Like-named read-outs stand apart in the source and are kept apart here.

With `CC(C)(C)NC[C@H](O)COc1nsnc1N1CCOCC1` [Timolol], in [1] (after two weeks of Timolol 0.5% 1 drop two times daily, both eyes, baseline 32 mmHg, Goldmann tonometer), the intraocular pressure is recorded as 28 mmHg. Also, in series [1] (human, in vivo), the blood pressure is recorded as 118/86 and the pulse rate came out at 65 beats/min.

As usually defined, the pKa is the negative logarithm of the acid dissociation constant. Read a low pKa as a group that gives up its proton readily. Regarding `CC12CC3CC(C)(C1)CC(N)(C3)C2.Cl` [memantine, 1-amino-3,5-dimethyladamantane hydrochloride], the “binding to natural and synthetic melanin” value in the series “In-vitro melanin binding” is “strongly bound”. In series [2], the “apparent octanol/water partition coefficient (Log)” value was 3.0. Also, the pKa in the series “pKa of the charged amine” worked out at 10.3. Moreover, in series [3], the solubility is 3.5%. Also, the “tissue distribution after topical dosing (autoradiography)” value in series [4] (0.74% aqueous isotonic solution pH 7.4, topical ophthalmic, sections 0.25-24 h post dosing) is given as “present in the posterior sclera, choroids and/or retina”. The “half-life in the posterior globe (qualitative)” value in series [4] (albino and pigmented rabbits, topical ophthalmic 0.74% solution) is recorded as “relatively long”. The “binding to ocular melanin (autoradiography intensity in pigmented tissues)” value in series [4] (pigmented tissues, topical ophthalmic 0.74% solution) is “bound to the ocular melanin”. Besides, the “route of penetration from topical delivery (autoradiography)” value in [4] (topical delivery) is reported as “trans-retinal route of penetration across the blood-retinal barrier”. In addition, the concentration at 7 days in [5] (35 μl of a 0.1% aqueous solution, topical, 35 μl of 0.1% aqueous solution twice a day for 7 days) was 107 ng/mL; in series [5] (oral, 2 mg/kg for seven days), 108 ng/mL.

Turning to `CC12CC3CC(N)(C1)CC(C(=O)OCC(CO)OCn1cnc4c(=O)[nH]c(N)nc41)(C3)C2` (stereo not shown) [Ganciclovir-conjugate], the clinical outcome in the series on CMV retinitis (one month follow-up, same regimen) is listed as “complete remission of ocular manifestations of CMV retinitis”. In the series on CMV retinitis (two-week follow-up, 0.5% 1 drop four times daily in both eyes), the ophthalmic examination outcome was “reduction in hemorrhages around the retinal vessels and cotton wool spots”.

`C[C@@H]1C/C=C/C=C/C=C/C=C/[C@H](O[C@@H]2O[C@H](C)[C@@H](O)[C@H](N)[C@@H]2O)C[C@@H]2O[C@](O)(C[C@@H](O)C[C@H]3O[C@@H]3/C=C/C(=O)O1)C[C@H](O)[C@H]2C(=O)O` [natamycin]: the clinical outcome in the series on fungal corneal ulcer is recorded as “symptoms have not improved”.
